# Tests used:
# Test in all cases: Kinase panel profiling
# Format in all cases: biochemical
# Conditions in all cases: 10 μM ATP
# [1] = biological target: T1, ARAF (Homo sapiens, UniProt P10398)
# T1 construct: purchased Reaction Biology Corp
# Experimental: (§1) Kinase panel profiling was conducted by Reaction Biology Corp. (San Diego, CA, USA). A single dose (1.0 μM) of 6r was tested against 371 recombinant human kinases in the presence of 10 μM ATP.
# [2] = biological target: T2, AURORA C (Homo sapiens, UniProt Q9UQB9)
# T2 construct: purchased Reaction Biology Corp
# Experimental: as §1
# [3] = biological target: T3, BTK (Homo sapiens, UniProt Q06187)
# T3 construct: purchased Reaction Biology Corp
# Experimental: as §1
# [4] = biological target: T4, CDC7/DBF4 (Homo sapiens, UniProt O00311)
# T4 construct: purchased Reaction Biology Corp
# Experimental: as §1
# [5] = biological target: T5, CK1a1L (Homo sapiens, UniProt Q8N752)
# T5 construct: purchased Reaction Biology Corp
# Experimental: as §1
# [6] = biological target: T6, CSK (Homo sapiens, UniProt P41240)
# T6 construct: purchased Reaction Biology Corp
# Experimental: as §1
# [7] = biological target: T7, DCAMKL2 (Homo sapiens, UniProt Q8N568)
# T7 construct: purchased Reaction Biology Corp
# Experimental: as §1
# [8] = biological target: T8, DMPK (Homo sapiens, UniProt Q09013)
# T8 construct: purchased Reaction Biology Corp
# Experimental: as §1
# [9] = biological target: T9, DYRK1/DYRK1A (Homo sapiens, UniProt Q13627)
# T9 construct: purchased Reaction Biology Corp
# Experimental: as §1
# [10] = biological target: T10, DYRK3 (Homo sapiens, UniProt O43781)
# T10 construct: purchased Reaction Biology Corp
# Experimental: as §1
# [11] = biological target: T11, EPHB1 (Homo sapiens, UniProt P54762)
# T11 construct: purchased Reaction Biology Corp
# Experimental: as §1
# [12] = biological target: T12, ERK5/MAPK7 (Homo sapiens, UniProt Q13164)
# T12 construct: purchased Reaction Biology Corp
# Experimental: as §1
# [13] = biological target: T13, FGFR2 (Homo sapiens, UniProt P21802)
# T13 construct: purchased Reaction Biology Corp
# Experimental: as §1
# [14] = biological target: T14, FGFR4 (Homo sapiens, UniProt P22455)
# T14 construct: purchased Reaction Biology Corp
# Experimental: as §1
# [15] = biological target: T15, FYN (Homo sapiens, UniProt P06241)
# T15 construct: purchased Reaction Biology Corp
# Experimental: as §1
# [16] = biological target: T16, GCK/MAP4K2 (Homo sapiens, UniProt Q12851)
# T16 construct: purchased Reaction Biology Corp
# Experimental: as §1
# [17] = biological target: T17, GRK4 (Homo sapiens, UniProt P32298)
# T17 construct: purchased Reaction Biology Corp
# Experimental: as §1
# [18] = biological target: T18, IKKa/CHUK (Homo sapiens, UniProt O15111)
# T18 construct: purchased Reaction Biology Corp
# Experimental: as §1
# [19] = biological target: T19, JAK3 (Homo sapiens, UniProt P52333)
# T19 construct: purchased Reaction Biology Corp
# Experimental: as §1
# [20] = biological target: T20, LKB1 (Homo sapiens, UniProt Q15831)
# T20 construct: purchased Reaction Biology Corp
# Experimental: as §1
# [21] = biological target: T21, MARK2/PAR-1Ba (Homo sapiens, UniProt Q7KZI7)
# T21 construct: purchased Reaction Biology Corp
# Experimental: as §1
# [22] = biological target: T22, MEKK2 (Homo sapiens, UniProt Q9Y2U5)
# T22 construct: purchased Reaction Biology Corp
# Experimental: as §1
# [23] = biological target: T23, MELK (Homo sapiens, UniProt Q14680)
# T23 construct: purchased Reaction Biology Corp
# Experimental: as §1
# [24] = biological target: T24, MKK4 (Homo sapiens, UniProt P45985)
# T24 construct: purchased Reaction Biology Corp
# Experimental: as §1
# [25] = biological target: T25, MSK2/RPS6KA4 (Homo sapiens, UniProt O75676)
# T25 construct: purchased Reaction Biology Corp
# Experimental: as §1
# [26] = biological target: T26, MYLK3 (Homo sapiens, UniProt Q32MK0)
# T26 construct: purchased Reaction Biology Corp
# Experimental: as §1
# [27] = biological target: T27, MYO3A (Homo sapiens, UniProt Q8NEV4)
# T27 construct: purchased Reaction Biology Corp
# Experimental: as §1
# [28] = biological target: T28, P38a/MAPK14 (Homo sapiens, UniProt Q16539)
# T28 construct: purchased Reaction Biology Corp
# Experimental: as §1
# [29] = biological target: T29, PAK3 (Homo sapiens, UniProt O75914)
# T29 construct: purchased Reaction Biology Corp
# Experimental: as §1
# [30] = biological target: T30, PDK1/PDPK1 (Homo sapiens, UniProt O15530)
# T30 construct: purchased Reaction Biology Corp
# Experimental: as §1
# [31] = biological target: T31, PKCa (Homo sapiens, UniProt P17252)
# T31 construct: purchased Reaction Biology Corp
# Experimental: as §1
# [32] = biological target: T32, PKCmu/PRKD1 (Homo sapiens, UniProt Q15139)
# T32 construct: purchased Reaction Biology Corp
# Experimental: as §1
# [33] = biological target: T33, PKCtheta (Homo sapiens, UniProt Q04759)
# T33 construct: purchased Reaction Biology Corp
# Experimental: as §1
# [34] = biological target: T34, PKCzeta (Homo sapiens, UniProt Q05513)
# T34 construct: purchased Reaction Biology Corp
# Experimental: as §1
# [35] = biological target: T35, PKG1b (Homo sapiens, UniProt Q13976)
# T35 construct: purchased Reaction Biology Corp
# Experimental: as §1
# [36] = biological target: T36, ROCK2 (Homo sapiens, UniProt O75116)
# T36 construct: purchased Reaction Biology Corp
# Experimental: as §1
# [37] = biological target: T37, TAOK3/JIK (Homo sapiens, UniProt Q9H2K8)
# T37 construct: purchased Reaction Biology Corp
# Experimental: as §1
# [38] = biological target: T38, TESK1 (Homo sapiens, UniProt Q15569)
# T38 construct: purchased Reaction Biology Corp
# Experimental: as §1
# [39] = biological target: T39, TNK1 (Homo sapiens, UniProt Q13470)
# T39 construct: purchased Reaction Biology Corp
# Experimental: as §1
# [40] = biological target: T40, TYRO3/SKY (Homo sapiens, UniProt Q06418)
# T40 construct: purchased Reaction Biology Corp
# Experimental: as §1
# [41] = biological target: T41, p70S6K/RPS6KB1 (Homo sapiens, UniProt P23443)
# T41 construct: purchased Reaction Biology Corp
# Experimental: as §1
# [42] = biological target: T42, p70S6Kb/RPS6KB2 (Homo sapiens, UniProt Q9UBS0)
# T42 construct: purchased Reaction Biology Corp
# Experimental: as §1
# T3 sequence (Q06187 whole entry): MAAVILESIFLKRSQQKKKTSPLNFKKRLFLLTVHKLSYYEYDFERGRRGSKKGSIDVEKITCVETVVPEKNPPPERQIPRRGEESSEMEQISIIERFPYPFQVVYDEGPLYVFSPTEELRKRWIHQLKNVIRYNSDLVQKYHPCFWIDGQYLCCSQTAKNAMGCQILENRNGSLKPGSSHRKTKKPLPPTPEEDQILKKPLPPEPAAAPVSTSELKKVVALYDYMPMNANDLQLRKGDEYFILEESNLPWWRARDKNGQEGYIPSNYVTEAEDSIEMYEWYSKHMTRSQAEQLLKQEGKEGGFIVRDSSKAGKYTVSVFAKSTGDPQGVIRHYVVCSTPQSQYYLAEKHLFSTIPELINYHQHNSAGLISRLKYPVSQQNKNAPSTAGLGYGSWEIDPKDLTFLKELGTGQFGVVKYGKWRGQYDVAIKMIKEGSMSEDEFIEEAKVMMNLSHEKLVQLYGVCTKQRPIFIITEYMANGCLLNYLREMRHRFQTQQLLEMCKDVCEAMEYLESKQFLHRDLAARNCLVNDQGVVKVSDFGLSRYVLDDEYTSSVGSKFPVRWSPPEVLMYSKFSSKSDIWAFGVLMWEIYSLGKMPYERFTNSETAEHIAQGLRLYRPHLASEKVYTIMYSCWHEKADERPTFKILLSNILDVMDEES
# T36 sequence (O75116 whole entry): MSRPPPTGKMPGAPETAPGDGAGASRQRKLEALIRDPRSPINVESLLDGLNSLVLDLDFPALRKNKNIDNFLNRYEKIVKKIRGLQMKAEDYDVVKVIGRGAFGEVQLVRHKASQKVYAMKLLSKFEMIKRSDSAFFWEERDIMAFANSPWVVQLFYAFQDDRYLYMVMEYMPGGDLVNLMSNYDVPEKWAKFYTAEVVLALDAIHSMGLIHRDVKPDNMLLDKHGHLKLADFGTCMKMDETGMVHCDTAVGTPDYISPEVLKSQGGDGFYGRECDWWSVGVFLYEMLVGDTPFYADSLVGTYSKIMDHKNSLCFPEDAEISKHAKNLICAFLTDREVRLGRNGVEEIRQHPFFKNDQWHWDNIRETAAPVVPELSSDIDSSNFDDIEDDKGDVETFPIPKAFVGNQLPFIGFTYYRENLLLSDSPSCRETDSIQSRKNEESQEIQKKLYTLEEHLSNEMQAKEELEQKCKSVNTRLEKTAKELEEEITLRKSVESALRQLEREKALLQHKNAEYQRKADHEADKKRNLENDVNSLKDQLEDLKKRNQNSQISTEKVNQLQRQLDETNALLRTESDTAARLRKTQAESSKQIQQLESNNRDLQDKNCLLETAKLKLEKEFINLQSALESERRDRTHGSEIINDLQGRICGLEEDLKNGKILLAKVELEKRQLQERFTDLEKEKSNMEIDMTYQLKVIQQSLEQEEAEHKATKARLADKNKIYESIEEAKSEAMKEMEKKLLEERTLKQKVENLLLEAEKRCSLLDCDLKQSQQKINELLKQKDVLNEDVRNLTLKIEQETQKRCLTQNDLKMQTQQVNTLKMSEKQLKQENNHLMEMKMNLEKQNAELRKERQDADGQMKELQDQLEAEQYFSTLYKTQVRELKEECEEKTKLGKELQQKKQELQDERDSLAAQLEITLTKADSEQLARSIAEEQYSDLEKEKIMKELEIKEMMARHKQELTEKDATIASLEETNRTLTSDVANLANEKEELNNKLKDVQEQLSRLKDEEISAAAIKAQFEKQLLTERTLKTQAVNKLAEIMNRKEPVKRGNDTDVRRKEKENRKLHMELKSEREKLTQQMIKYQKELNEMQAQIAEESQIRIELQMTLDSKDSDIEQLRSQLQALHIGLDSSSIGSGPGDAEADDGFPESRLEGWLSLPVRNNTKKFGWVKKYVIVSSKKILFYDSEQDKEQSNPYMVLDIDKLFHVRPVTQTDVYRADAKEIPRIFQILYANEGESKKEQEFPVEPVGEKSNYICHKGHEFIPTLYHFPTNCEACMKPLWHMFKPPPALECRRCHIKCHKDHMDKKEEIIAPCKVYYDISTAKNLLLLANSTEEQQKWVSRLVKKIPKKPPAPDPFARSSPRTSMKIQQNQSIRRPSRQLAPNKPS
# T39 sequence (Q13470 whole entry): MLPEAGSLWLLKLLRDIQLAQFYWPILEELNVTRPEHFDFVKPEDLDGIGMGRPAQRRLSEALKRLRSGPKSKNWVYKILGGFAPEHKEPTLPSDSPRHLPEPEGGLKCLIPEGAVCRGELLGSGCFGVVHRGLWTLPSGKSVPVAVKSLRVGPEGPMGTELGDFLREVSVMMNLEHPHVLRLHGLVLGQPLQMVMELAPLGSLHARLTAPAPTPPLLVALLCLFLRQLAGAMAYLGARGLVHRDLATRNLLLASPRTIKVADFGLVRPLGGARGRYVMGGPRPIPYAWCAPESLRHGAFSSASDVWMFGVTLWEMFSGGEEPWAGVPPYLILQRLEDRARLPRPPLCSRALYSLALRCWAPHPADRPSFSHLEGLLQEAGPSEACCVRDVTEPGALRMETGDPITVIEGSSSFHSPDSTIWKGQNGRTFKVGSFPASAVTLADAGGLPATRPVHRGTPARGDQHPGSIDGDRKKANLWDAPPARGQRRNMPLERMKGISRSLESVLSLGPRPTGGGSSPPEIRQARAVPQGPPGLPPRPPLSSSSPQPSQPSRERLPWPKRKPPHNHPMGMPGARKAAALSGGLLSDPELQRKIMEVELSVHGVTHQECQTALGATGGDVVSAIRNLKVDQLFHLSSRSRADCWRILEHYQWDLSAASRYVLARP
# T11 sequence (P54762 18-984): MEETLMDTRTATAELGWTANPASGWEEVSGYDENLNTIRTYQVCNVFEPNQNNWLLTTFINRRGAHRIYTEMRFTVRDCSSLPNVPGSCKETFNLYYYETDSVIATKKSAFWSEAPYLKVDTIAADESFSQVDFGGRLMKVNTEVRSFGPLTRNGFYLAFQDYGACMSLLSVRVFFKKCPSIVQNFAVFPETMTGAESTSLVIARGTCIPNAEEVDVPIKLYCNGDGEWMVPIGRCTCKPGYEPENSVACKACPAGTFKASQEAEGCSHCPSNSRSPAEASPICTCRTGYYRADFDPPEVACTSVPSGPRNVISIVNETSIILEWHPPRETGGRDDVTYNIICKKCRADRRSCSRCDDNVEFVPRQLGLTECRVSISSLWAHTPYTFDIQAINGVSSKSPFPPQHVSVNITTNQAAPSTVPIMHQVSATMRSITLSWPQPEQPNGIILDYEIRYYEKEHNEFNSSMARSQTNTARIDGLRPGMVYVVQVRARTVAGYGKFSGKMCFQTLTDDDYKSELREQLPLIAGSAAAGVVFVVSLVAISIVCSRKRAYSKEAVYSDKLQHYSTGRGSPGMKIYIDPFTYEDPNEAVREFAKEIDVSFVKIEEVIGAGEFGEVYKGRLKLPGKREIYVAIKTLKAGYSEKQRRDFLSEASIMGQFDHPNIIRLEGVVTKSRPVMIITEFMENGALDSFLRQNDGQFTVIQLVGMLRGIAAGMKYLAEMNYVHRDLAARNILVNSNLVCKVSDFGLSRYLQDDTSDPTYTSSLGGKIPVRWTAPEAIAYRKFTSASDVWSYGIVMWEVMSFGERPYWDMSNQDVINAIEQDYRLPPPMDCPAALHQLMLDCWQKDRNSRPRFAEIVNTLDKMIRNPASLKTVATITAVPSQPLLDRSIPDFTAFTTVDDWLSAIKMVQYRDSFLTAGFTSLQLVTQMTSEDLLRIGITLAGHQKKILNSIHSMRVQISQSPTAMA
# T15 sequence (P06241 whole entry): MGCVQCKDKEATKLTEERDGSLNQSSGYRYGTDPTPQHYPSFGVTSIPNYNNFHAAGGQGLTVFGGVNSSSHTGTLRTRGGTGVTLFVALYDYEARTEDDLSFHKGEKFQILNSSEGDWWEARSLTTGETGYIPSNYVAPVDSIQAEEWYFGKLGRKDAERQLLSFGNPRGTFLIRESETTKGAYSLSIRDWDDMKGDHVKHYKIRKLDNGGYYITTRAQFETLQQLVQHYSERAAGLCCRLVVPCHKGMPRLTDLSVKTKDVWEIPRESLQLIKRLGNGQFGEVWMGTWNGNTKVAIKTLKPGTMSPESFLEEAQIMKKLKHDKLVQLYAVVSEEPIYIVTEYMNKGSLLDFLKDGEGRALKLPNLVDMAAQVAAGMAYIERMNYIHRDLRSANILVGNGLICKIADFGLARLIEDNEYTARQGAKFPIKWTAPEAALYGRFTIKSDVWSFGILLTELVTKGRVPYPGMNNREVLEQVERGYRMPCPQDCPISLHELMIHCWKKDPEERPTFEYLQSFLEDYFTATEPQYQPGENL
# T12 sequence (Q13164 whole entry): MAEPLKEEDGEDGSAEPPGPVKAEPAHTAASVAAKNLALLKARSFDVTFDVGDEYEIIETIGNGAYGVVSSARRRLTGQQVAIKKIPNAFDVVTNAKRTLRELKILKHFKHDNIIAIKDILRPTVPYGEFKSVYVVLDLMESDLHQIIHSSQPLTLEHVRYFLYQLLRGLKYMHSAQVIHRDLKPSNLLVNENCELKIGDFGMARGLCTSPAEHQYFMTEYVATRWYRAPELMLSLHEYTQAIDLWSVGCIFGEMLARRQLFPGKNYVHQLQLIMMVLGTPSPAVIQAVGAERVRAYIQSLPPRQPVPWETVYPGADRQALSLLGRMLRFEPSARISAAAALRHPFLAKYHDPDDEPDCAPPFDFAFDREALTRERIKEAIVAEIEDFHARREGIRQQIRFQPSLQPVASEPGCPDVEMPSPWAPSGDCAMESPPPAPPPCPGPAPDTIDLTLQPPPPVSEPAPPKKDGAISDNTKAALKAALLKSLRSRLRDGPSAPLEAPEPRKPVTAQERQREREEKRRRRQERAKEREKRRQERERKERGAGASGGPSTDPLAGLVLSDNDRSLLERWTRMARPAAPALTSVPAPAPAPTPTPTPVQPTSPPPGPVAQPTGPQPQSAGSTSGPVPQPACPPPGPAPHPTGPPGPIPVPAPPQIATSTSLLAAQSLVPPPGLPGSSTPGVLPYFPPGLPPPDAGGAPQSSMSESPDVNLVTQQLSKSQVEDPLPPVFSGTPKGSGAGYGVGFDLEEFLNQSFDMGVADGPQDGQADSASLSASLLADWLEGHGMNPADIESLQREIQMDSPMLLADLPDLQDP
smiles,measurement,setting,value
Cc1ccc(NC(=O)c2ccc(CN3CCN(C)CC3)c(C(F)(F)F)c2)cc1-c1cnc2sc(N)nc2c1 [6r],inhibition at 1 µM,[1],98.3%
same,inhibition at 1 µM,[2],4.9%
same,inhibition at 1 µM,[3],4.7%
same,inhibition at 1 µM,[4],0.8%
same,inhibition at 1 µM,[5],8.5%
same,inhibition at 1 µM,[6],41.3%
same,inhibition at 1 µM,[7],0%
same,inhibition at 1 µM,[8],0%
same,inhibition at 1 µM,[9],17.4%
same,inhibition at 1 µM,[10],0%
same,inhibition at 1 µM,[11],65.7%
same,inhibition at 1 µM,[12],6.5%
same,inhibition at 1 µM,[13],43%
same,inhibition at 1 µM,[14],30.1%
same,inhibition at 1 µM,[15],89%
same,inhibition at 1 µM,[16],21.8%
same,inhibition at 1 µM,[17],0%
same,inhibition at 1 µM,[18],4.8%
same,inhibition at 1 µM,[19],7.8%
same,inhibition at 1 µM,[20],0%
same,inhibition at 1 µM,[21],0%
same,inhibition at 1 µM,[22],11.1%
same,inhibition at 1 µM,[23],17.1%
same,inhibition at 1 µM,[24],6%
same,inhibition at 1 µM,[25],17.1%
same,inhibition at 1 µM,[26],0%
same,inhibition at 1 µM,[27],15%
same,inhibition at 1 µM,[28],96.5%
same,inhibition at 1 µM,[29],8.3%
same,inhibition at 1 µM,[30],7.2%
same,inhibition at 1 µM,[31],4.2%
same,inhibition at 1 µM,[32],15.9%
same,inhibition at 1 µM,[33],6.9%
same,inhibition at 1 µM,[34],0%
same,inhibition at 1 µM,[35],3.3%
same,inhibition at 1 µM,[36],0.6%
same,inhibition at 1 µM,[37],17.8%
same,inhibition at 1 µM,[38],5.3%
same,inhibition at 1 µM,[39],36.2%
same,inhibition at 1 µM,[40],14.6%
same,inhibition at 1 µM,[41],8.4%
same,inhibition at 1 µM,[42],34%

# — article PMC9817970 (Cancers, 2022)
